The values that follow are results of earlier work, collected in paper PMC7196435 (Bioorganic & medicinal chemistry letters, 2020).

This series has as its system CYP46A1. The settings on record: at 1 μM concentration.

Consider `O=C(NCc1ccccc1)N1CCN(c2cncnc2-c2ccccc2)CC1` [compound 1], for which the “inhibitory activity towards CYP46A1” value is listed as 95%.
